US20020028849A1, “Use of retinol in assisted-reproduction protocols” (priority 2000, published 2002)

Legend:
[1] = system: superovulated ewes (embryos recovered at the morula stage); test: Experiment 1: retinoid treatment of superovulated ewes, in vitro development of recovered morula-stage embryos; format: in vivo, sheep; conditions: for embryo quality score (grade 1=excellent to 4=degenerate) immediately after collection / in vitro blastocyst formation / embryonic hatching rate in vitro: ROH 500,000 IU, RA 15 mg; for embryo quality score (grade 1=excellent to 4=degenerate) immediately after collection / in vitro blastocyst formation: CIS 15 mg on first and last day of FSH; for embryo quality score (grade 1=excellent to 4=degenerate) immediately after collection: morula stage; for in vitro blastocyst formation: morulae cultured 72 h in TCM 199; for embryonic hatching rate in vitro: CIS 15 mg, morulae cultured 72 h
Method: (§1) Referring now to FIGS. 1 and 2, a series of experiments were carried out to examine the effect of retinoid administration on superovulated sheep. In these experiments, the estrous cycles of sexually mature crossbred ewes were synchronized using progestin implants (Synchromate B) combined with prostaglandin F2-alpha (Lutalyse) injections, and superovulation was induced by multiple FSH injections. Briefly, animals were administered one progestin implant and 6 days later received two Lutalyse injections (15 mg i.m.) 12 hours apart. Superovulation was induced using a total of 24 units of FSH administered twice daily in decreasing doses over 3 days (5.5, 4.4, 3.3 units per injection, respectively) beginning 9-11 days after implant administration. Retinoid treatments were administered on the first and last day of FSH injections. Implants were removed at the time of the fifth FSH injection, and animals were checked for estrus 24 hours later. […] All animals were maintained on high-quality hay and fed ad libitum, with free-choice access to a sheep and goat mineral premix that contained 1 million IU vitamin A per pound.
In the first experiment, performed under decreasing day length (fall), 25 ewes were randomly assigned to one of the following treatments: (1) all-trans retinol (ROH; 500,000 IU, n=6); (2) all-trans retinoic acid (RA; 15 mg, n=6); (3) 9-cis retinoic acid (CIS; 15 mg, n=7); or (4) vehicle (Control; n=6), which was corn oil. Animals were surgically ovohysterectomized at 144 hours post-implant removal, and uteri were gently flushed twice with culture medium (tissue culture medium 199 [TCM 199]) to collect morula stage embryos. Two ewes from the RA group wer dropped from the study: one because of a total lack of response to the FSH treatment, the other because of overstimulation resulting in more than 50 ovulations with none of the ova fertilizing. This left 4 animals in the RA group, 5 in each of the ROH and Control groups, and 7 in the CIS group.
Embryos (morulae) collected in experiments 1 and 2 were categorized according to morphology, developmental stage, and quality based on a procedure developed for bovine embryos. See, Lindner and Wright, Theriogenology 1983; 20:407-416. Quality grades ranged from 1 to 4, with 1=excellent, 2=good, 3=poor, and 4=degenerate. One individual, who was unaware of treatments at the time, performed all of the grading.
In the first two experiments, morula-stage embryos were cultured in TCM 199 with Earle's salt supplemented with 10% FBS and 1 mM glutamine. See, Bavister BD. Studies on the developmental blocks in cultured hamster embryos. In: Bavister BD (ed.), The Mammalian Preimplantation Embryo: Regulation of Growth and Differentiation in vitro. New York:Plenum Press; 1987:219-249. The FBS had been twice stripped of low molecular weight molecules with charcoal, and retinol concentrations were below detection levels as determined by fluorescent analysis. See, Selvaraj and Susheela, Clin Chim Acta 1970; 27:165-170. In the third experiment, 1- to 4-cell embryos were cultured in SOF supplemented with 3 mg/ml BSA and essential and nonessential amino acids. See, Carolan et al., Theriogenology 1995; 43:1115-1128. Both media were prepared weekly, filtered through a 0.2 um filter, and allowed to equilibrate for 2 hours in a humidified atmosphere at 38.5° C. containing 5% CO2 in air.
Morula-stage embryos (experiments 1 and 2) were washed a minimum of three times in the outer well of organ culture dishes and then transferred with a minimum amount of medium into the inner well, which contained 3 ml of TCM 199. Embryos from each ewe were cultured in one dish, and there were no significant differences in the average number of embryos per dish between treatments. Embryos were cultured for 96 hours and observed daily for blastocyst formation and complete hatching from the zona pellucida. No further development was observed after 72 hours in culture, and all data presented reflect that time period. […]

[2] = system: superovulated ewes (1- to 4-cell embryos); test: Experiment 3: ROH treatment of superovulated ewes, in vitro development of 1- to 4-cell embryos; format: in vivo, sheep; conditions: 1- to 4-cell embryos cultured in SOF
Method: as §1
The third study involved two identical experiments performed sequentially in the fall and winter. Results were not different between seasons, and the data were combined. A total of 24 ewes, not used in the previous experiments, received either ROH (n=12) or Control (n=12) treatment in combination with FSH, followed by natural mating at estrus, as in experiment 2. At 84 hours post-implant removal, ewes were salphincectomized and oviducts gently flushed with culture medium in order to recover 1- to 4-cell embryos.
(§2) In the first two experiments, morula-stage embryos were cultured in TCM 199 with Earle's salt supplemented with 10% FBS and 1 mM glutamine. See, Bavister BD. […] The FBS had been twice stripped of low molecular weight molecules with charcoal, and retinol concentrations were below detection levels as determined by fluorescent analysis. […]
(§3) Data were checked for normality and analyzed using the Statistical Analysis System (SAS Institute Inc., Cary, N.C.). […]

[3] = system: superovulated ewes (embryos recovered at the morula stage); test: Experiment 2: ROH treatment of superovulated ewes (winter), in vitro development of morula-stage embryos; format: in vivo, sheep
Method: as §1
The second experiment was a repetition of the first, with the exceptions that it was performed under increasing day length (winter) and only the ROH and Control treatments were administered (in combination with FSH) to 24 ewes (12 per treatment) not used in the previous experiment. One ewe from the Control group was dropped from the study for failure to respond to FSH treatment. […]
as §2, with “glutamine.” for “glutamine. See, Bavister BD.”
as §3

[4] = system: in vitro produced bovine embryos (presumptive zygotes); test: In vitro retinol treatment of presumptive zygotes, blastocyst formation; format: cell-based; conditions: 7-8 days culture
Method: The effects of retinol and retinoic acid on early embryonic development of in vitro produced bovine embryos were investigated. Oocytes and their surrounding cumulus cells were collected from bovine ovaries, matured in vitro for 24 h and fertilized by standard procedures for 8-10 h. Presumptive zygotes were denuded of cumulus cells, washed and cultured in modified synthetic oviduct fluid (a standard culture medium) in the presence or absence of retinol ([…]) at 38.5° C. in a humidified atmosphere of 5% CO2 in air. Embryos were cultured for 7-8 days.
Blastocyst (a fluid filled ball of approximately 100 cells, containing a inner cell mass which gives rise to the fetus and a trophoblast which gives rise to the placenta) formation was used as an end point for in vitro development. The above experiment was performed three times using 210 embryos in each treatment group with 70 embryos/group (630 total, 210/treatment). Embryonic development to the blastocyst stage, expressed as % blastocyst/cleaved embryos, was control (no retinol)=28.33%, 1 uM Retinol=48.66%, 10 uM Retinol=57.33%.

[5] = system: recipient ewes receiving embryos from treated donor ewes; test: Pregnancy rates after transfer of frozen embryos from retinol-treated superovulated ewes; format: in vivo, sheep
Source text: Twenty-four ewes were synchronized, superovulated and administered treatments, as described previously (Eberhardt, Will and Godkin. Biol Reprod 60, 1483-1487, 1999). Briefly, animals received a progestagen implant and six days later received two injections of prostaglandin F2-alpha (Lutalyse, Upjohn Co. Kalamazoo, Mich.) twelve hours apart. Superovulation was induced with 24 units of porcine follicle stimulating hormone (FSH, Sioux Biochemical, Sioux City, Iowa) in decreasing doses over 3 days beginning 9-11 days after implant administration. All-trans retinol was administered to twelve ewes in corn oil at 500,000 IU per injection on the first and last day of FSH injections. Control ewes (12) received corn oil without retinol.
Embryos at the morula stage of development (168 h post implant removal) were collected by gently flushing the uterus with phosphaste-buffered saline+2% bovine serum albumin (BSA) following surgical hysterectomy. Embryos were frozen by conventional methods (Leibo. Theriogenology 21: 767. 1984) using ethylene glycol as the cryoprotectant in a programmable freezer and stored in liquid N2. After three months, embryos were thawed briefly (30 seconds) at 37° C. and two embryos were transferred directly into the uterine horn of synchronized recipient ewes. Seven recipient ewes received embryos from retinol-treated ewes and 11 recipient ewes received embryos from control ewes. Pregnancy rates were determined by ultrasonography 30-40 days after transfer.

[6] = cited from earlier work

| Compound | embryo quality score (grade 1=excellent to 4=degenerate) immediately after collection [1] | in vitro blastocyst formation [1] [%] | embryonic hatching rate in vitro [1] [%] | blastocyst hatching [2] [%] | blastocyst formation ([2]; n=230 embryos, p<0.05) [%] | embryos that progressed through the 8-cell in vitro block ([2]; p<0.05) [%] | fold increase in hatching rate in comparison with vehicle treatment [3] [fold] | hatching rate ([3]; ROH treatment of donor ewes, p<0.05) [%] | percentage of embryos that formed blastocysts ([3]; ROH treatment of donor ewes, winter, n=243 embryos) [%] | embryonic development to the blastocyst stage, % blastocyst/cleaved embryos ([4]; 1 uM Retinol in modified synthetic oviduct fluid) [%] | embryonic development to the blastocyst stage, % blastocyst/cleaved embryos ([4]; 10 uM Retinol in modified synthetic oviduct fluid) [%] | pregnancy rate of recipient ewes ([5]; donors given 500,000 IU per injection on first and last day of FSH, two frozen-thawed embryos transferred, ultrasonography 30-40 days after transfer) [%] | number of the six pregnant recipient ewes carrying twins ([5]; embryos from retinol-treated donor ewes) | survival of all transferred embryos ([5]; embryos from retinol-treated donor ewes, 30-40 days after transfer) [%] | solubility in ethanol, methanol, ether, fats, and oil ([6]; ethanol, methanol, ether, fats, oil) | solubility in water or aqueous salt solutions ([6]; water or aqueous salt solutions) | fold increase in in vitro blastocyst formation compared to RA, CIS or Control animals ([1]; p<0.05) |
| --- | --- | --- | --- | --- | --- | --- | --- | --- | --- | --- | --- | --- | --- | --- | --- | --- | --- |
| CC1=C(/C=C/C(C)=C\C=C\C(C)=C\C(=O)O)C(C)(C)CCC1 [CIS, 9-cis retinoic acid] | 2.4±0.2 | 33 | 38 | – | – | – | – | – | – | – | – | – | – | – | – | – | – |
| CC1=C(/C=C/C(C)=C/C=C/C(C)=C/C(=O)O)C(C)(C)CCC1 [RA, all-trans retinoic acid] | – | 27 | 55 | – | – | – | – | – | – | – | – | – | – | – | – | – | – |
| CC1=C(/C=C/C(C)=C/C=C/C(C)=C/CO)C(C)(C)CCC1 [ROH, all-trans retinol] | 1.9±0.1 | 72 | 73 | 71 | 79 | 94 | ~3 | 70 | 70 | 48.66 | 57.33 | 86 | five | 78.6 | soluble | practically insoluble | greater than 2 fold |
